Experimental data taken from paper PMC12115217, “3,3′-((3-Hydroxyphenyl)azanediyl)dipropionic Acid Derivatives as a Promising Scaffold Against Drug-Resistant Pathogens and Chemotherapy-Resistant Cancer” (Pathogens, 2025).
≈ marks a conversion by molar mass, not a printed value. Counter-ions that a name gives are not always drawn. Like-named read-outs stand apart in the source and are kept apart here.

Assays:
[1] = tested on: E. faecalis AR-0671; test: Broth microdilution MIC, E. faecalis AR-0671; assay type: cell-based, Enterococcus faecalis; conditions: for MIC: Enterococcus faecalis
Excerpt: (§1) The multidrug-resistant S. aureus strain TCH 1516 [USA 300-HOU-MR] was obtained from the American Type Culture Collection (ATCC, Manassas, VA, USA) (Table 1). E. faecalis AR-0671, multidrug-resistant E. coli AR-0001, K. pneumoniae AR-0003, P. aeruginosa AR-1114, and A. baumannii AR-0273 strains were acquired from the Centers for Disease Control and Prevention (CDC) AR isolate bank (Table 1). Prior to the initiation of this study, all microbial strains were stored in commercial cryopreservation systems at a temperature of −80 °C. The strains were cultivated on Columbia sheep blood agar (Becton Dickinson, Franklin Lakes, NJ, USA) or potato dextrose agar (PDA) for Candida (Becton Dickinson, Franklin Lakes, NJ, USA).
(§2) The antimicrobial activity of 3-((3-hydroxyphenyl)amino)propanoic acid derivatives was assessed by using the broth microdilution method, following the guidelines outlined by the Clinical Laboratory Standards Institute (CLSI), with modifications. In brief, the compounds were dissolved in dimethyl sulfoxide (DMSO) to attain a final concentration of 25–30 mg/mL. Vancomycin hydrochloride (MedChem express, Cat. No. HY-17362), cefazolin (MedChem express, Cat. No. HY-B1892), and meropenem (MedChem express, Cat. No. HY-13678) were used as control antimicrobial drugs and were dissolved in DMSO as described before. Dilution series were prepared in deep 96-well microplates to achieve a two-fold concentration range of 0.25, 0.5, 1, 2, 4, 8, 16, 32, and 64 µg/mL, utilizing cation-adjusted Mueller–Hinton broth (CAMHB) as the growth medium. The microplates containing the dilution series were then inoculated with fresh cultures of each tested organism to reach a final concentration of 5 × 10^4 CFU (colony-forming units) of the test organism in media containing 1% DMSO and 1× drug concentration, with a volume of 200 µL per well. Wells that were inoculated with medium containing 1% DMSO served as positive controls. Subsequently, the microplates were incubated at 35 ± 1 °C for 18 ± 2 h. Following the incubation period, the plates were examined by using a manual microplate viewer (Sensititre Manual Viewbox, ThermoFisher Scientific, Waltham, MA, USA). […] All experiments were conducted in duplicate with three technical replicates for each condition.

[2] = tested on: A. baumannii AR-0273; test: Broth microdilution MIC, A. baumannii AR-0273; assay type: cell-based, Acinetobacter baumannii; conditions: Acinetobacter baumannii, AR0273; OXA-23; CAMHB, 18 ± 2 h; read-out: minimal inhibitory concentration (MIC) A. baumannii AR-0273
Excerpt: as §1, §2

[3] = tested on: S. aureus TCH 1516; test: Broth microdilution MIC, S. aureus TCH 1516; assay type: cell-based; conditions: Staphylococcus aureus
[4] = tested on: E. coli AR-0001; test: Broth microdilution MIC, E. coli AR-0001; assay type: cell-based; conditions: Escherichia coli, AR0001; multidrug-resistant, KPC-3; CAMHB, 18 ± 2 h; read-out: minimal inhibitory concentration (MIC) E. coli AR-0001
[5] = tested on: K. pneumoniae AR-0003; test: Broth microdilution MIC, K. pneumoniae AR-0003; assay type: cell-based; conditions: Klebsiella pneumoniae, AR0003; KPC-3; CAMHB, 18 ± 2 h; read-out: minimal inhibitory concentration (MIC) K. pneumoniae AR-0003
[6] = tested on: P. aeruginosa AR-1114; test: Broth microdilution MIC, P. aeruginosa AR-1114; assay type: cell-based; conditions: Pseudomonas aeruginosa, AR1114; IMP-15; CAMHB, 18 ± 2 h; read-out: minimal inhibitory concentration (MIC) P. aeruginosa AR-1114
[7] = tested on: FaDu cells; test: MTT cell viability at fixed 100 µM, FaDu cells; assay type: cell-based; conditions: 24 h, described in words (Figure 2)
Procedure: Test compounds 2–25 were dissolved in hybridoma-grade dimethyl sulfoxide (Millipore, Sigma, Burlington, MA, USA) to prepare stock solutions at concentrations of 10–25 mg/mL. […] For in vitro anticancer activity screening, the compounds were thawed at room temperature, protected from light, and the aliquots were diluted in complete cell culture media to achieve a final concentration of 100 µM and used for the in vitro assays. The cytotoxicity assays were performed in triplicate.
FaDu cells were obtained from the American Type Culture Collection (Rockville, MD, USA). HEK293 cells were kindly provided by Dr. Iliev lab at the Jill Roberts Institute for Inflammatory Bowel Disease, Weill Cornel Medicine of Cornel University (New York, NY, USA). All cells were cultivated in Dulbecco’s Modified Eagle Medium/Nutrient Mixture F-12 (DMEM/F-12) (Gibco, Waltham, MA, USA), 10% fetal bovine serum (FBS) (Gibco, Waltham, MA, USA), 100 U/mL penicillin, and 100 μg/mL streptomycin (P/S) (Gibco, Waltham, MA, USA). Culturing conditions were maintained at 37 °C in a humidified atmosphere containing 5% CO2. The culture medium was refreshed every 2–3 days, and cells were passaged upon reaching 70–80% confluence.
The in vitro inhibitory effects of the compounds were assessed by using the MTT assay. Briefly, cells were plated in 96-well plates at a density of 1 × 10⁴ cells per well. After the cells were allowed to adhere overnight at 37 °C in 5% CO₂, they were treated with compounds at a concentration of 100 µM in triplicate. Following a 20 h incubation, the MTT reagent was added, and the cells were further incubated for 4 h. The resulting formazan was solubilized in anhydrous DMSO, and absorbance was measured at 570 nm by using a microplate reader. Cell viability was calculated by using the following formula: ([AE − AB]/[AC − AB]) × 100%, where AE, AC, and AB represent the absorbance values of experimental samples, untreated controls, and blank wells, respectively. Data analysis was performed by using GraphPad Prism or QuickCalcs.

[8] = AR0671, CAMHB, 18 ± 2 h, read-out: minimal inhibitory concentration (MIC) E. faecalis AR-0671
[9] = MRSA / USA300, mecA MRSA isolate, USA300 lineage, CAMHB, 18 ±, read-out: minimal inhibitory concentration (MIC) S. aureus TCH 1516

Structure (SMILES) | MIC [1, 8] [mg/L] | MIC [2] [mg/L] | MIC [3, 9] [mg/L] | MIC [4] [mg/L] | MIC [5] [mg/L] | MIC [6] [mg/L] | post-treatment viability (MTT assay) [7] | minimal inhibitory concentration (MIC) E. faecalis AR-0671 ([1]; CAMHB) [mg/L] | MIC ([1]; AR0671, read-out: minimal inhibitory concentration (MIC) E. faecalis AR-0671) [mg/L] | MIC ([3]; MRSA / USA300, read-out: minimal inhibitory concentration (MIC) S. aureus TCH 1516) [mg/L]
Cc1nnc(SCC2=C(C(=O)O)N3C(=O)[C@@H](NC(=O)Cn4cnnn4)[C@H]3SC2)s1 [Cefazolin, cefazolin, reference compound] | 8 (≈ 17.6 µM) | > 64 | 32 (≈ 70.4 µM) | > 64 | > 64 | > 64 | – | – | – | –
COC(=O)CCN(CCC(=O)OC)c1cccc(O)c1 [Compound 3, Dimethyl 3,3′-((3-hydroxyphenyl)azanediyl)dipropionate] | > 64 | > 64 | > 64 | 32 (≈ 114 µM) | > 64 | > 64 | minimal cytotoxicity | – | – | –
O=C(CCN(CCC(=O)NN=Cc1ccc(F)cc1F)c1cccc(O)c1)NN=Cc1ccc(F)cc1F [Compound 9, 3,3′-((3-Hydroxyphenyl)azanediyl)bis(N′-(2,4-difluorobenzylidene)propanehydrazide)] | > 64 | > 64 | > 64 | > 64 | > 64 | > 64 | – | – | – | –
O=C(CCN(CCC(=O)NN=Cc1ccc(Cl)cc1)c1cccc(O)c1)NN=Cc1ccc(Cl)cc1 [Compound 11, 3,3′-((3-Hydroxyphenyl)azanediyl)bis(N′-(4-chlorobenzylidene)propanehydrazide)] | > 64 | > 64 | 64 (≈ 122 µM) | > 64 | > 64 | > 64 | – | >64 | – | –
CN(C)c1ccc(/C=N/NC(=O)CCN(CCC(=O)N/N=C/c2ccc(N(C)C)cc2)c2cccc(O)c2)cc1 [Compound 12] | > 64 | 64 (≈ 118 µM) | 64 (≈ 118 µM) | > 64 | 64 (≈ 118 µM) | 64 (≈ 118 µM) | enhanced cytotoxic effects | – | – | –
O=C(CCN(CCC(=O)NN=Cc1cccc2ccccc12)c1cccc(O)c1)NN=Cc1cccc2ccccc12 [Compound 14, 3,3′-((3-Hydroxyphenyl)azanediyl)bis(N′-(naphthalen-1-ylmethylene)propanehydrazide)] | 8 (≈ 14.3 µM) | > 64 | 2 (≈ 3.59 µM) | 64 (≈ 115 µM) | > 64 | > 64 | – | – | – | –
O=C(CCN(CCC(=O)N/N=C/c1ccco1)c1cccc(O)c1)N/N=C/c1ccco1 [Compound 15] | > 64 | 64 (≈ 146 µM) | > 64 | > 64 | > 64 | 64 (≈ 146 µM) | enhanced cytotoxic effects | – | – | –
CCC(C)=NNC(=O)CCN(CCC(=O)NN=C(C)CC)c1cccc(O)c1 [Compound 20, 3,3′-((3-Hydroxyphenyl)azanediyl)bis(N′-(butan-2-ylidene)propanehydrazide)] | 32 (≈ 82.2 µM) | > 64 | 16 (≈ 41.1 µM) | > 64 | > 64 | > 64 | – | – | – | –
CC(=NNC(=O)CCN(CCC(=O)NN=C(C)c1ccccc1)c1cccc(O)c1)c1ccccc1 [Compound 21, 3-((3-Hydroxyphenyl)(3-oxo-3-(2-(1-phenylethylidene)hydrazineyl)propyl)amino)-N′-(1-phenylethylidene)propanehydrazide] | 32 (≈ 65.9 µM) | > 64 | 32 (≈ 65.9 µM) | > 64 | > 64 | > 64 | – | – | – | –
C/C(=N\NC(=O)CCN(CCC(=O)N/N=C(\C)c1ccc(S(N)(=O)=O)cc1)c1cccc(O)c1)c1ccc(S(N)(=O)=O)cc1 [Compound 22, 4,4′-(((3,3′-((3-Hydroxyphenyl)azanediyl)bis(propanoyl))bis(hydrazin-2-yl-1-ylidene))bis(ethan-1-yl-1-ylidene))dibenzenesulfonamide] | 32 (≈ 49.7 µM) | > 64 | 8 (≈ 12.4 µM) | 16 (≈ 24.9 µM) | > 64 | > 64 | – | – | – | –
Cc1ccc(C)n1NC(=O)CCN(CCC(=O)Nn1c(C)ccc1C)c1cccc(O)c1 [Compound 23, 3,3′-((3-Hydroxyphenyl)azanediyl)bis(N-(2,5-dimethyl-1H-pyrrol-1-yl)propanamide)] | > 64 | > 64 | 64 (≈ 146 µM) | > 64 | > 64 | > 64 | reduced viability | – | – | –
Cc1cc(C)n(C(=O)CCN(CCC(=O)n2nc(C)cc2C)c2cccc(O)c2)n1 [Compound 24, 3,3′-((3-Hydroxyphenyl)azanediyl)bis(1-(3,5-dimethyl-1H-pyrazol-1-yl)propan-1-one)] | > 64 | > 64 | > 64 | > 64 | > 64 | > 64 | reduced viability | – | – | –
C[C@@H](O)[C@H]1C(=O)N2C(C(=O)O)=C(S[C@@H]3CN[C@H](C(=O)N(C)C)C3)[C@H](C)[C@H]12 [Meropenem, meropenem, reference compound] | 2 (≈ 5.22 µM) | > 64 | 2 (≈ 5.22 µM) | 8 (≈ 20.9 µM) | 64 (≈ 167 µM) | 32 (≈ 83.4 µM) | – | – | – | –
CN[C@H](CC(C)C)C(=O)N[C@H]1C(=O)N[C@@H](CC(N)=O)C(=O)N[C@H]2C(=O)N[C@H]3C(=O)N[C@H](C(=O)N[C@H](C(=O)O)c4cc(O)cc(O)c4-c4cc3ccc4O)[C@H](O)c3ccc(c(Cl)c3)Oc3cc2cc(c3O[C@@H]2O[C@H](CO)[C@@H](O)[C@H](O)[C@H]2O[C@H]2C[C@](C)(N)[C@H](O)[C@H](C)O2)Oc2ccc(cc2Cl)[C@H]1O [Vancomycin, Vancomycin hydrochloride, reference compound] | – | – | – | – | – | – | – | – | 4 | 2
